Two molecules from ChEMBL document CHEMBL5356989, “Impact of multiple H/D replacements on the physicochemical properties of flurbiprofen” (RSC Med Chem, 2023) can be followed below.

The nature of data set [1]: Oral bioavailability in fasted Sprague Dawley rat at 10 mg/kg measured for 8 hrs by HPLC analysis. Format: ADME, organism-based. The following applies: in vivo.
Data set [2] is described as follows: Apparent permeability of compound by PAMPA assay. Format: ADME. In general terms: The PAMPA barrier holds no transporters, so it reflects passive diffusion.
Data set [3] in a line: AUC (0 to 8 hrs) in Sprague Dawley rat at 1 mg/kg, iv measured for 8 hrs by HPLC analysis. Format: ADME, organism-based. Further details: dose 1 mg/kg, time 8 hrs, route iv. The settings on record: in vivo.
Data set [4] can be described thus: Solubility in HCl at pH 1.2 at 1 mg measured for 28 hrs by HPLC analysis. Format: physicochemical. The following applies: HCl pH 1.2, pH 1.2.
A short description of data set [5]: Permeability of compound assessed as drug flux measured for 2 to 6 hrs by PAMPA assay. Format: ADME. The following applies: time 2-6 hrs.
For data set [6], the target named is T1, Cytochrome P450 2C9 (Homo sapiens, UniProt P11712). Kind of data set: Drug metabolism assessed as recombinant CYP2C9 (unknown origin)-mediated 4'-hydroxyl FP-d7 metabolite formation at 1 to 5 uM incubated for 10 mins in presence of NADPH by LC-MS analysis. Format: ADME. The settings on record: recombinant enzyme, dose 1-5 µM.
T1 sequence (P11712 whole entry): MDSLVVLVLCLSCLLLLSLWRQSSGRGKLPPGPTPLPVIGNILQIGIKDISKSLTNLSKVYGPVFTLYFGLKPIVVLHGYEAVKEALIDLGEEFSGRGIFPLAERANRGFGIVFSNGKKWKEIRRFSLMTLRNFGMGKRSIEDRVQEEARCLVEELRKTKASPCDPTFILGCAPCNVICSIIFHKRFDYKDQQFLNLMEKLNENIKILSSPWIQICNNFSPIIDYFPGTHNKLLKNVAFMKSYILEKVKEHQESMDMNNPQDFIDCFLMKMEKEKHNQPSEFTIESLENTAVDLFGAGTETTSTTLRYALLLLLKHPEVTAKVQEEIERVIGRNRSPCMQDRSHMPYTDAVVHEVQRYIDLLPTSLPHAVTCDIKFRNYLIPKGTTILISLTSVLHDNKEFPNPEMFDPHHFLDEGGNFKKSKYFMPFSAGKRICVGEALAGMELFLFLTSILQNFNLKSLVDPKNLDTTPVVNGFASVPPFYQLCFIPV
Data set [7] is described as follows: Solubility in PBS at pH 6.0 at 1 mg measured for 28 hrs by HPLC analysis. Format: physicochemical. The following applies: PBS pH 6.0, pH 6.
Data set [8] can be described thus: Lipophilicity, log D of compound in n-octanol/PBS at pH 7.4 at 10 mg measured for 48 hrs by HPLC analysis. Format: physicochemical.
Data set [9] has as its target T1, Cytochrome P450 2C9. Kind of data set: Drug metabolism assessed as recombinant CYP2C9 (unknown origin)-mediated 4'-hydroxyl FP-d7 metabolite formation by measuring Vmax/Km per nmol of CYP at 1 to 5 uM incubated for 10 mins in presence of NADPH by LC-MS analysis. Format: ADME. The settings on record: recombinant enzyme, dose 1-5 µM.
Data set [10] can be described thus: Half life in Sprague Dawley rat at 1 mg/kg, iv measured for 8 hrs by HPLC analysis. The following applies: in vivo. Format: ADME, organism-based.
Data set [11] can be described thus: Clearance in Sprague Dawley rat at 1 mg/kg, iv measured for 8 hrs by HPLC analysis. Format: ADME, organism-based. The settings on record: in vivo.
A short description of data set [12]: AUC (0 to 8 hrs) in fasted Sprague Dawley rat at 10 mg/kg, po measured for 8 hrs by HPLC analysis. Format: ADME, organism-based. The settings on record: in vivo. Further details: dose 10 mg/kg, time 8 hrs, route po.
A short description of data set [13]: Cmax in fasted Sprague Dawley rat at 10 mg/kg, po measured for 8 hrs by HPLC analysis. Format: ADME, organism-based. Also noted: dose 10 mg/kg, time 8 hrs, route po. The following applies: in vivo.
In data set [14] the target is T1, Cytochrome P450 2C9. Kind of data set: Drug metabolism assessed as recombinant CYP2C9 (unknown origin)-mediated 4'-hydroxyl FP-d7 metabolite formation by measuring Vmax per nmol of CYP at 1 to 5 uM incubated for 10 mins in presence of NADPH by LC-MS analysis. The following applies: recombinant enzyme, dose 1-5 µM. Format: ADME.
The nature of data set [15]: Tmax in fasted Sprague Dawley rat at 10 mg/kg, po measured for 8 hrs by HPLC analysis. Format: ADME, organism-based. The settings on record: in vivo.
A short description of data set [16]: Volume of distribution at steady state in Sprague Dawley rat at 1 mg/kg, iv measured for 8 hrs by HPLC analysis. Format: ADME, organism-based. The following applies: in vivo, read-out: Vdss.
Data set [17] is described as follows: Solubility in distilled water at 1 mg measured for 28 hrs by HPLC analysis. Format: physicochemical.
Data set [18] concerns the target T1, Cytochrome P450 2C9. Put plainly: Drug metabolism assessed as recombinant CYP2C9 (unknown origin)-mediated 4'-hydroxy FP metabolite formation at 1 to 5 uM incubated for 10 mins in presence of NADPH by LC-MS analysis. Format: ADME. The settings on record: recombinant enzyme, dose 1-5 µM.

In brackets after ≈: the same amount, converted by molar mass.

For orientation: bioavailability means dose-corrected exposure relative to a reference, in per cent. Lower therefore signals little systemic uptake. In general, Papp refers to the rate of passage across a membrane or cell layer, normalised by area and donor concentration. Usually AUC(0-t) stands for the area under the concentration-time curve up to a stated or last time point. The term solubility denotes how much of the substance goes into solution per volume. Read a high solubility as much dissolved substance. In general, logD refers to the decadic logarithm of the distribution of all forms, ionised or not, between an organic phase and buffer at a given pH. A low value points to lower lipophilicity. One may read the half-life as the time in which the quantity being followed falls by half. A word on the clearance: it is the volume of plasma or blood freed of the substance per unit of time. A lower clearance goes with a low capacity for elimination. In general, Cmax refers to the peak of the concentration-time curve. Usually Vmax stands for the rate approached at saturating substrate. A word on the Tmax: it is the time from dosing to the highest level.

On to `[2H]c1c([2H])c([2H])c(-c2c([2H])c([2H])c(C(C)C(=O)O)c([2H])c2F)c([2H])c1[2H]` (configuration not stated), for which, in [1], the bioavailability came to 75.3%. Further, the Papp in data set [2] was 5.32 ×10⁻⁶ cm/s. For the same molecule, the figures for the exposure AUC(0-t) at 8 h in [3] and in data set [12] were 19200 ng·h/mL and 144000 ng·h/mL, respectively. The solubility at 28 h in [4] is 12.7 µg/mL (≈ 50.5 µM); in [7], 918 µg/mL (≈ 3640 µM); in data set [17], 32.7 µg/mL (≈ 129 µM). The Drug transport in [5] worked out at 4.6 µg/h. For the same molecule, the Drug metabolism result at Cytochrome P450 2C9 [6] is “Metabolite_Detected”. This molecule came in with a logD at 48 h in [8] of 0.87. For the same molecule, the Vmax/Km at Cytochrome P450 2C9 [9] is 1.24 µL/min. This molecule showed a half-life in [10] of 33 min. The clearance in data set [11] is 0.217 mL/min/kg. The same molecule yielded a Cmax in [13] of 33000 ng/mL. For the same molecule, at Cytochrome P450 2C9 [14], the Vmax came out at 0.91 pmol/min. Also, the Tmax in data set [15] is 60 min. For the same molecule, the Vd in data set [16] came out at 0.0207 L/kg.
In [1], `CC(C(=O)O)c1ccc(-c2ccccc2)c(F)c1` (configuration not stated) [FLURBIPROFEN] yielded a bioavailability of 66.9%. For the same molecule, the Papp in data set [2] stood at 5.24 ×10⁻⁶ cm/s. The figures for the AUC(0-t) at 8 h in data set [3] and in data set [12] were 19500 ng·h/mL and 130000 ng·h/mL, respectively. Besides, the solubility at 28 h in [4] was found to be 5.9 µg/mL (≈ 24.2 µM); in [7] it was 810 µg/mL (≈ 3310 µM); in data set [17] it was 24.1 µg/mL (≈ 98.7 µM). Besides, the Drug transport in data set [5] was 4.53 µg/h. The logD at 48 h in [8] turned out to be 0.9. This molecule had a half-life in data set [10] of 34.2 min. For the same molecule, in data set [11], the clearance is 0.216 mL/min/kg. For the same molecule, the concentration in data set [13] peaked (Cmax) at 29600 ng/mL. Moreover, the time to peak (Tmax) in data set [15] turned out to be 30 min. Further, the Drug metabolism result at Cytochrome P450 2C9 [18] is reported as “Metabolite_Detected”. In addition, in data set [16], the Vd amounted to 0.0204 L/kg.
